Results taken from PMC4544630, “Contribution of C-glucosidic ellagitannins to Lythrum salicaria L. influence on pro-inflammatory functions of human neutrophils” (Journal of Natural Medicines, 2014).

Columns and labels:
[1] = test system: MPO; experiment: MPO release from cytochalasin A/f-MLP-stimulated neutrophils (TMB substrate); type: cell-based, human; details: for MPO release Mean(%): cytochalasin A/f-MLP, % of stimulated control; for activity on MPO release: all tested concentrations (1, 5, 20 μM)
Text: Peripheral venous blood was taken from healthy human donors (20-35 years old) in the Warsaw Blood Donation Centre. […] The study conformed to the principles of the Declaration of Helsinki. Neutrophils were isolated using a standard method of dextran sedimentation prior to hypotonic lysis of erythrocytes and to centrifugation in a Ficoll Hypaque gradient. The purity of neutrophil preparations was >97 %, and viability measured by trypan blue exclusion was >98 %. Neutrophils were then resuspended in appropriate medium to perform the selected assay. Neutrophil MPO release was determined using TMB as a substrate. […] After centrifugation (2000 rpm; 10 min; 4 °C), 100 μL of supernatant was incubated with 50 μL of the TMB liquid substrate system. The reaction was terminated after 20 min by the addition of 2 M hydrochloric acid. The absorbance was measured at […] using a microplate reader (BioTek). Gallic acid was used as a positive control, according to Kroes et al..

[2] = test system: ROS; experiment: ROS release from f-MLP-stimulated neutrophils, luminol chemiluminescence; type: cell-based, human; details: % of stimulated control
Text: (§1) Peripheral venous blood was taken from healthy human donors (20–35 years old) in the Warsaw Blood Donation Centre. […] The study conformed to the principles of the Declaration of Helsinki. Neutrophils were isolated using a standard method of dextran sedimentation prior to hypotonic lysis of erythrocytes and to centrifugation in a Ficoll Hypaque gradient. The purity of neutrophil preparations was >97 %, and viability measured by trypan blue exclusion was >98 %. Neutrophils were then resuspended in appropriate medium to perform the selected assay.
(§2) Generation of oxidants by f-MLP or PMA-stimulated neutrophils was measured using luminol- or lucigenin-dependent chemiluminescence tests. 70 μL of cell suspension (2 × 10^5/mL) in HBSS was incubated with 50 μL of compound or extract solution (final concentrations of 1, 5 and 20 μM or μg/mL) together with 50 μL of luminol (100 μM) or lucigenin (200 μM) solution. ROS production was initiated by the addition of 30 μL of f-MLP (0.1 μg/mL) or PMA (1 μg/mL). Changes in chemiluminescence at 37 °C were measured immediately for 45 min at intervals of 2 min in a microplate reader (Biotek). Ascorbic acid was used as a positive control.

[3] = test system: elastase; experiment: Elastase release from cytochalasin A/f-MLP-stimulated neutrophils (SAAVNA substrate); type: cell-based, human; details: for Elastase release Mean(%): % of stimulated control; for activity on elastase release: tested concentrations (1, 5, 20 μM)
Text: as §1
Neutrophil elastase release was determined using SAAVNA as a substrate, and […] was measured spectrophotometrically. 100 μL of cell suspension (5 × 10^5/mL) in HBSS was preincubated with 50 μL of compound or extract solution (final concentrations of 1, 5 and 20 μM or μg/mL) for 15 min at 37 °C and then stimulated with 50 μL of cytochalasin A (5 μg/mL) and f-MLP (0.1 μg/mL) for 15 min. The neutrophils were centrifuged (2000 rpm; 10 min; 4 °C). After the addition of 50 μL of SAAVNA solution (1.6 mg/mL) to 100 μL of supernatant, the extent of […] was measured spectrophotometrically for 1 h at intervals of 20 min, at 412 nm using a microplate reader (BioTek). According to Kanashiro et al., quercetin was used as a positive control.

[4] = test system: ethanol-induced gastric lesions; design: method as in PMID 12590500; details: mouse; orally 50 mg/kg b.w.; cited from earlier work
[5] = test system: ROS; experiment: ROS release from PMA-stimulated neutrophils, lucigenin chemiluminescence; type: cell-based, human; details: PMA + lucygenin, % of stimulated control
Text: as §1, §2

[6] = test system: IL-8; experiment: IL-8 production by LPS-stimulated neutrophils (ELISA); type: cell-based, human; details: LPS 100 ng/mL, 24 h, % of stimulated control
Text: as §1
(§3) Neutrophils (2 × 10^5/mL) were cultured in 24-well plates in RPMI 1640 medium with 10 % FBS, 10 mM HEPES, and 2 mM L-glutamine in the absence or presence of LPS (100 ng/mL) for 24 h at 37 °C with 5 % CO2 in the absence or presence of extract at concentrations of 1, 5 and 20 μg/mL, and compounds at concentrations of 1, 5 and 20 μM were added to 1 mL of cell suspension 1 h before the stimuli. After 24 h, the neutrophils were harvested and centrifuged (2000 RPM; 10 min; 4 °C). The amount of IL-8 or MMP-9 released into cell supernatants was measured by enzyme-linked immunosorbent assay (ELISA) following the manufacturer’s instructions (R&D Systems, Minneapolis, MN, USA). PBS was used as a non-stimulated control. Curcumin was used as a positive control, according to Aggarwal and Harikumar and Antoine et al..

[7] = test system: MMP-9; experiment: MMP-9 production by LPS-stimulated neutrophils (ELISA); type: cell-based, human; details: LPS 100 ng/mL, 24 h, % of stimulated control
Text: as §1, §3

[8] = target: T1, bovine testis hyaluronidase (Bos taurus, UniProt Q2YDK3); experiment: Hyaluronidase activity, USP turbidimetric method modified; type: biochemical; details: for Hyaluronidase activity Mean(%): % of 100% active enzyme control
T1 construct: purchased Sigma–Aldrich GmbH (Steinheim, Germany); host or cells: bovine testis
T1 sequence (Q2YDK3 36-553): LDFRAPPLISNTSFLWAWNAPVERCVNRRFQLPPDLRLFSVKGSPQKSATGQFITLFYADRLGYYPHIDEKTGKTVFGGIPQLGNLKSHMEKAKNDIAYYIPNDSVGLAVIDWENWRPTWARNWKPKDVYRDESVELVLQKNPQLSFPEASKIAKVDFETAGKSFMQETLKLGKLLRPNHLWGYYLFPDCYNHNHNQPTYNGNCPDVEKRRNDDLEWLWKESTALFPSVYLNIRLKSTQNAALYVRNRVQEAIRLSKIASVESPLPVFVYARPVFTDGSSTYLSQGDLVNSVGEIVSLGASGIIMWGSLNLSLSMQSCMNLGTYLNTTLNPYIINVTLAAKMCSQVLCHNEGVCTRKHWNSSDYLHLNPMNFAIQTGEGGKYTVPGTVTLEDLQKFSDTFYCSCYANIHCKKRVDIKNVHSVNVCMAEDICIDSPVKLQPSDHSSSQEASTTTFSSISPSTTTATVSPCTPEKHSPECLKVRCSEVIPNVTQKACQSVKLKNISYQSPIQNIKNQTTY
Text: The […] flowering herb was collected from its natural habitat in Umer in the Świętokrzyskie region (Poland) in July 2011. Its identity was confirmed anatomically and morphologically based on its pharmacopoeial monograph in the Department of Pharmacognosy and Molecular Basis of Phytotherapy, Medical University of Warsaw, where the voucher specimen UMER2011 is deposited. […] […]), castalagin ([…] (SB) and […]. 1, 2) from […] performed according to Piwowarski and Kiss. […] Isolated ellagitannins were of >95 % purity (determined by the HPLC-DAD-CAD method). […] Gallic acid (>96 % purity) was purchased from ChromaDex (Santa Ana, USA). Propidium iodide was purchased from BD Biosciences (San Diego, CA, USA). All substances used were of >95 % purity. Phosphate-buffered saline (PBS) was purchased from Gibco (Carlsbad, CA, USA). The influence of extract and ellagitannins on hyaluronidase activity was measured using the USP turbidimetric method modified by Piwowarski et al. […] Heparin was used as a positive control.

Structure (SMILES) | MPO release Mean(%) ([1]; 1 μM) | MPO release Mean(%) ([1]; 5 μM) | MPO release Mean(%) ([1]; 20 μM) | ROS release Mean(%) ([2]; 1 μM) | ROS release Mean(%) ([2]; 5 μM) | ROS release Mean(%) ([2]; 20 μM) | Elastase release Mean(%) ([3]; 1 μM) | Elastase release Mean(%) ([3]; 5 μM) | Elastase release Mean(%) ([3]; 20 μM) | ROS release Mean(%) ([5]; 1 μM) | ROS release Mean(%) ([5]; 5 μM) | ROS release Mean(%) ([5]; 20 μM) | IL-8 production Mean (%) ([6]; 1 μM) | IL-8 production Mean (%) ([6]; 5 μM) | IL-8 production Mean (%) ([6]; 20 μM) | MMP-9 production Mean (%) ([7]; 1 μM) | MMP-9 production Mean (%) ([7]; 5 μM) | MMP-9 production Mean (%) ([7]; 20 μM) | IC50 [8] [µM] | Hyaluronidase activity Mean(%) ([8]; 1 μM) | also measured
O=C1OC[C@H]2OC(=O)c3cc(O)c(O)c(O)c3-c3c(O)c(O)c(O)c4c3C(=O)O[C@H]([C@H]3OC(=O)c5c-4c(O)c(O)c(O)c5[C@H]3O)[C@@H]2OC(=O)c2cc(O)c(O)c(O)c2-c2c1cc(O)c(O)c2O [C, castalagin] | 75,53% | 56,44% | 29,85% | 62,41% | 40,10% | 29,55% | 96,55% | 102,40% | 105,22% | 79,28% | 60,48% | 37,00% | 92,43% | 75,24% | 70,24% | 92,70% | 88,18% | 96,42% | 3.1 ± 0.2 | 87,07% | activity on MPO release [1]: expressed inhibitory activity at all tested concentrations; activity on elastase release [3]: completely inactive; reduction of ethanol-induced gastric lesions [4]: very potent in the reduction of ethanol-induced gastric lesions; Hyaluronidase activity Mean(%) ([8]; 2 μM): 73,08%; Hyaluronidase activity Mean(%) ([8]; 5 μM): 19,92%; Hyaluronidase activity Mean(%) ([8]; 20 μM): 3,13%
O=C(OC1COC(=O)c2cc(O)c(O)c(O)c2-c2c(cc(O)c(O)c2O)C(=O)OC1C1OC(=O)c2cc(O)c(O)c(O)c2-c2c(O)c(O)c(O)c3c2C(=O)OC1C3O)c1cc(O)c(O)c(O)c1Oc1cc2c(c(O)c1O)-c1c(cc(O)c(O)c1O)C(=O)OCC1OC(=O)c3cc(O)c(O)c(O)c3-c3c(O)c(O)c(O)c4c3C(=O)OC(C1OC2=O)C1OC(=O)c2c-4c(O)c(O)c(O)c2C1O (centres unmarked) [SC, salicarinin C] | 66,67% | 52,85% | 5,95% | 63,16% | 34,71% | 18,92% | 85,10% | 80,91% | 50,60% | 66,62% | 34,56% | 7,37% | 77,70% | 78,29% | 56,68% | 97,74% | 92,17% | 86,61% | 2.5 ± 0.2 | 81,82% | Hyaluronidase activity Mean(%) ([8]; 2 μM): 57,68%; Hyaluronidase activity Mean(%) ([8]; 5 μM): 8,00%; Hyaluronidase activity Mean(%) ([8]; 20 μM): 0,50%
O=C1OCC2OC(=O)c3cc(O)c(O)c(O)c3-c3c(O)c(O)c(O)c4c3C(=O)OC(C2OC(=O)c2cc(O)c(O)c(O)c2-c2c1cc(O)c(O)c2O)C1OC(=O)c2c-4c(O)c(O)c(O)c2C1O (centres unmarked) [V, vescalagin] | 81,67% | 65,70% | 41,17% | 63,47% | 46,61% | 30,13% | 102,25% | 104,61% | 102,89% | 66,84% | 50,90% | 28,93% | 98,64% | 80,63% | 71,68% | 85,96% | 99,57% | 89,91% | 3.1 ± 0.2 | 88,10% | activity on MPO release [1]: expressed inhibitory activity at all tested concentrations; activity on elastase release [3]: completely inactive; Hyaluronidase activity Mean(%) ([8]; 2 μM): 68,10%; Hyaluronidase activity Mean(%) ([8]; 5 μM): 18,39%; Hyaluronidase activity Mean(%) ([8]; 20 μM): 5,10%
